Peptide text beside a SMILES is read from it.
Columns and labels:
SARS-CoV-2 = assay: Antiviral activity against SARS-CoV-2 USA-WA1/2020 infected in African green monkey Vero 76 cells assessed as reduction in virus-induced cytopathic effect measured after 5 days by neutral red dye uptake analysis; assay type: functional, organism-based; details: Severe acute respiratory syndrome coronavirus 2, USA-WA1/2020, Vero 76, 120 h
[1] = Bioavailability in CD-1 mouse at 20 mg/kg, ip measured for 24 hrs by LC-MS/MS analysis; assay type: ADME, organism-based; details: in vivo

| Compound | EC50 (SARS-CoV-2) [nM] | bioavailability [1] [%] |
| --- | --- | --- |
| CC(C)C[C@H](NC(=O)OCc1ccccc1)C(=O)N[C@@H](C[C@@H]1CCNC1=O)C(O)S(=O)(=O)O (some centres undefined) | 490 | – |
| O=C[C@H](C[C@@H]1CCNC1=O)NC(=O)[C@H](Cc1cccc(F)c1)NC(=O)c1cc2ccccc2[nH]1 | – | 80 |
| CSCC[C@@H](C=O)NC(=O)[C@H](CC(C)C)NC(=O)[C@H](CC(C)C)NC(C)=O (Ac-Leu-Leu-Met-aldehyde) | 490 | – |
| CC(C)(C)NC(=O)N[C@H](C(=O)N1C[C@H]2[C@@H]([C@H]1C(=O)NC(CC1CCC1)C(=O)C(N)=O)C2(C)C)C(C)(C)C (some centres undefined) [BOCEPREVIR] | 490 | – |
